Source: patent US20110098360A1, “ADAMANTANE DERIVATIVE FOR INHIBITING TOXICITY OF AMYLOID OLIGOMER” (NANODIAMOND, INC., priority 2008, published 2011)

Legend:
(Aβ)12 = biological target: T1, (Aβ)12 (Homo sapiens, UniProt P05067); experiment: CD spectrum of (Aβ)12 after treatment with adamantane derivatives; conditions: for change in the CD spectrum of (Aβ)12: (Aβ)12 treated with adamantane derivative, 37° C., 190-250 nm; for effect of deforming the β-turn structure (rank order): among the adamantane derivatives tested
T1 construct: purchased Biopeptide Co; host or cells: chemical synthesis; oligomerised in house (HFIP, DMSO, HEPES pH 7.4, 37 °C, 24 h)
T1 sequence (P05067 672-713 limits assumed): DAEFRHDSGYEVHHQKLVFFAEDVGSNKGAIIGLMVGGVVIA
Protocol: (§1) (Aβ)12 was prepared according to a known method. Specifically, synthetic Aβ1-42 peptide (Biopeptide Co.) was suspended at room temperature in 100% 1, 1, 1, 3,3,3-hexafluoro-2-propanol (HFIP). After incubation for 30 minutes, HFIP was removed by evaporating under mild nitrogen flow. Then, Aβ1-42 was suspended again in dimethyl sulfoxide (DMSO) at a concentration of 5 mM and then diluted with mM 2-[4-(2-hydroxyethyl)-1-piperazinyl]ethanesulfonic acid (HEPES; pH 7.4) to a final concentration of 110 μM. The resulting solution was incubated at 37° C. for 24 hours while stirring at 500 rpm using a micro stir bar. After centrifugation at 4000 g for 30 minutes, thus obtained 56-kDa Aβ1-42 dodecamer, i.e. (Aβ)12, was concentrated (50 kDa and 100 kDa cut-off). The presence of (Aβ)12 in the concentrated sample was identified by sodium dodecyl sulfate polyacrylamide gel electrophoresis (SDS-PAGE). Its spherical structure was confirmed by atomic force microscopy. For cell culturing experiment, a 2 μM solution of (Aβ)12 was diluted using serum-free Dulbecco's modified Eagles medium (DMEM) to a final concentration of 33 nM, which corresponds to a monomer concentration of about 400 nM.
Circular dichroism (CD) spectra are useful in determining the secondary structure of proteins in solution. CD spectrum was obtained using a Jasco-810 instrument at high-sensitivity mode (5 mdeg), with a time constant of 4 s, at a scan rate of 100 nm/min, for 30 cycles. The spectrum was obtained at 37° C. in the wavelength region from 190 nm to 250 nm.
Referring to FIG. 5, when the amyloid oligomer was treated with the adamantane derivatives, the intensity of the positive band of the oligomer at 195 nm decreased and the positive band at 205 nm shifted toward longer wavelength. This means that the adamantane derivatives induce deformation of the oligomer structure by changing the configuration of the β-sheets. […] Although a detailed structure of the deformed oligomer is not clear, the decrease of intensity at 205 nm is due to the β-turn structure.

H19-7 cells = experiment: FLIM of single live H19-7 cell in the presence of (Aβ)12 and adamantane derivatives; assay type: cell-based, rat; conditions: for aspect ratio of single live cell: H19-7 cell treated with beta amyloid oligomer, FIG. 8; for apoptosis / toxicity of (Aβ)12 on single cell (fluorescence images): H19-7 cell, 33 nM (Aβ)12 plus adamantane derivative, FIG. 7
Protocol: as §1, with “After centrifugation at 4000 g for 30 minutes, thus obtained 56-kDa Aβ1-42 dodecamer, i.e. (Aβ)12, was concentrated (50 kDa and 100 kDa cut-off). The presence of (Aβ)12 in the concentrated sample was identified by sodium dodecyl sulfate polyacrylamide gel electrophoresis (SDS-PAGE). Its spherical structure was confirmed by atomic force microscopy.” left out
Rat hippocampal H19-7 cells were stored in DMEM containing 10% (v/v) fetal bovine serum (FBS). The cells were cultured to 80% colonies on a culture dish at low concentration in a 35° C. incubator of humidified 5% CO2 atmosphere. For fluorescence lifetime imaging microscopy (FLIM), the cells were cultured for a day after being transferred to a dish equipped with a poly-D-lysine-coated cover glass (MatTek Corporation). Before FLIM measurement, the cells were stained with 3 μM Cell Tracker Green CMFDA (Molecular Probes) solution and then incubated for 30 minutes in serum-free medium.
FLIM is a powerful tool for producing clear images of live cells. FLIM images were obtained at 40 MHz at an excitation wavelength of 467 nm (Picoquant PDL 800-B), using a band pass filter for 500-580 nm and a long pass emission filter for 473 nm (Semlock). A Nikon confocal microscope equipped with an oil-impregnated objective lens (NA 1.3) was used as a platform of an AFM scanner (PSIA). In FLIM measurement, time-correlated single photon counting is very important. […] The measurement was carried out after placing live cells on a poly-d-lysine-coated cover glass bottomed dish (MatTek Corporation) coated with and then filling serum-free medium diluted with PBS buffer.
For FLIM imaging, […] hippocampal cells (H19-7) were labeled with Cell Tracker Green having a relatively small pKa value.
In general, the degree of degeneration of neurons can be qualitatively analyzed based on the change in the aspect ratio of a single cell. The progression of neuronal death could be evaluated from the decrease in the aspect ratio.

[1] = test system: LTP in hippocampal CA1 region (Schaffer collateral pathway); experiment: fEPSP / LTP extracellular recording in hippocampal CA1 transverse slice; design: species or system ICR mouse; conditions: 1 hour after HFS
Protocol: Field excitatory postsynaptic potential (fEPSP) was measured in the CA1 region (Schaffer collateral pathway) of the hippocampus of an ICR mouse using the extracellular recording technique.
Hippocampal slice for fEPSP experiment was obtained from young (4-7 weeks old) male ICR mice. The mice were anesthetized with isoflurane prior to decapitation. After quickly taking out the brain of the mouse from the skull, the brain was cooled with ice and then put in a highly concentrated sucrose solution (sucrose 201 mM, KCl 3 mM, NaH2PO4 1.25 mM, MgCl2 3 mM, CaCl2 1 mM, NaHCO3 26 mM and D-glucose 10 mM) of pH 7.3 with oxygen (95% O2 and 5% CO2) supplied thereto. After isolating the hippocampus from the brain, transverse slices were obtained by cutting with a vibratome (Ted Pella, Redding, Calif., USA) in the high-concentration sucrose solution. Before extracellular recording, the transverse slice was incubated at 30° C. in a normal artificial cerebrospinal fluid (nACSF; NaCl 126 mM, KCl 3 mM, NaH2PO4 1.25 mM, MgSO4 1.3 mM, MgSO4 1.3 mM, CaCl2 2.4 mM, NaHCO3 26 mM and D-glucose 10 mM) of […] of pH 7.3 with oxygen supplied thereto. […]
In order to induce long-term potentiation (LTP), high-frequency stimulation (HFS, 2 trains, 100 Hz, 1s duration, 15 intervals) was applied with the same strength as that of the baseline experiment. Average LTP was calculated by averaging 20 fEPSP slopes at 55 to 60 minutes after the application of the high-frequency stimulation.
Extracellular field potential was recorded using a microelectrode AC amplifier model 1800 (A-M Systems, Inc., USA). The response signal was low-pass filtered at 5 kHz, digital sampled at 10 kHz using a Digidata 1322 A/D converter, and then analyzed using pCLAMP 9.0 software (Axon Instruments). […] The difference between two means was analyzed by an unpaired Student's t-test. p<0.05 was evaluated as significant. […]

Aβ1-40 = experiment: In vivo test in Tg-APP/PS1 mice, ELISA of insoluble Aβ1-40; design: species or system Tg-APPswe/PS1dE9 mouse; conditions: single ICV injection of TAMA (1.274 μg), 24 hours, prefrontal cortex, 7.5-month-old mice
Protocol: (§2) Transgenic APPswe/PS1dE9 (Tg-APP/PS1) mouse overexpressing human APP and PS1 mutations was crossbred with hybrid mouse of C57BL6 and C3H until the same genetic background as the original Tg-APP/PS1 mouse was attained. The mice were accommodated in a cage with temperature and humidity controlled and 12 hour night/day cycles (lighting began at 7 a.m.), 1 to 3 mice per cage. The mice were freely given water and feed. All the mice were handled according to the Guideline for Animal Breeding and Management of the College of Pharmacy, Ewha Womans University. […]
(§3) Quantification of Aβ by ELISA was performed according to the literature of Lee et al. (Lee et al., Neurobiol. Dis. 22, 10-24). […]
(§4) Aβ1-40 peptide and Aβ1-42 peptide concentrations were determined using […] Human β Amyloid Aβ1-40 and Aβ1-42 colorimetric sandwich ELISA kits (Signal Select™, BioSource, Camarillo, Calif., USA).
(§5) A and B respectively show the quantity of insoluble Aβ1-40 (A) and insoluble Aβ1-42 (B) in the prefrontal cortex of a 7.5-month-old Tg-APP/PS1 mouse to which TAMA was administered represented as % mol with respect to when only the vehicle was administered. […]

Aβ1-42 = experiment: In vivo test in Tg-APP/PS1 mice, ELISA of insoluble Aβ1-42; design: species or system Tg-APPswe/PS1dE9 mouse; conditions: single ICV injection of TAMA (1.274 μg), 24 hours, prefrontal cortex, 7.5-month-old mice
Protocol: as §2, §3, §4, §5

effect of deforming the β-turn structure (rank order) ((Aβ)12) | Compound | change in the CD spectrum of (Aβ)12 ((Aβ)12) | aspect ratio of single live cell (H19-7 cells; in 60 minutes) | apoptosis / toxicity of (Aβ)12 on single cell (fluorescence images) (H19-7 cells) | aspect ratio of single live cell (H19-7 cells; after 120 minutes) | fEPSP slope increase with respect to the baseline ([1]; 30 nM Aβ oligomer solution only, N=9) | fEPSP slope increase with respect to the baseline ([1]; 30 nM Aβ oligomer and 200 nM TAMA, N=9) | fEPSP slope increase with respect to the baseline ([1]; 200 nM TAMA without Aβ oligomer, N=4) | quantity of insoluble Aβ1-40 relative to vehicle (control) group (Aβ1-40) | quantity of insoluble Aβ1-42 relative to vehicle (control) group (Aβ1-42)
TAMA>amantadine>memantine | CC12CC3CC(C)(C1)CC(N)(C3)C2 [memantine] | almost identical to that of the typical β-turn peptide | 1.0 | comparable to or faster than in the presence of (Aβ)12 only | – | – | – | – | – | –
– | Aβ oligomer: 56-kDa Aβ1-42 dodecamer prepared from synthetic Aβ1-42 peptide; neurotoxic oligomer used as challenge | – | – | – | 1.0 | 124.7±5.743% | – | – | – | –
TAMA>amantadine>memantine | NCC12CC3(CN)CC(CN)(C1)CC(CN)(C2)C3 [TAMA, 1,3,5,7-Tetrakis(aminomethyl)adamantane] | negative band near 195 nm | – | not affected by the toxicity of the oligomer at all | no decrease in the aspect ratio | – | 170.4±13.72% | 183.2±11.30% | 69.7% | 87.8%

Compound | effect of deforming the β-turn structure (rank order) ((Aβ)12) | change in the CD spectrum of (Aβ)12 ((Aβ)12) | aspect ratio of single live cell (H19-7 cells; in 60 minutes) | apoptosis / toxicity of (Aβ)12 on single cell (fluorescence images) (H19-7 cells) | aspect ratio of single live cell (H19-7 cells; after 120 minutes) | fEPSP slope increase with respect to the baseline ([1]; 30 nM Aβ oligomer solution only, N=9) | fEPSP slope increase with respect to the baseline ([1]; 30 nM Aβ oligomer and 200 nM TAMA, N=9) | fEPSP slope increase with respect to the baseline ([1]; 200 nM TAMA without Aβ oligomer, N=4) | quantity of insoluble Aβ1-40 relative to vehicle (control) group (Aβ1-40) | quantity of insoluble Aβ1-42 relative to vehicle (control) group (Aβ1-42)
NC12CC3CC(CC(C3)C1)C2 [amantadine, Amantadine] | TAMA>amantadine>memantine | broadening of the positive band from 205 nm to 215 nm | – | – | – | – | – | – | – | –
